# Experiments:
# Candida albicans [1] = assay: Activity against crop candidosis in turkeys (dose whereby crops of 50% of animals were completely negative); type: in vivo; conditions: medicated feed for 13 consecutive days
# Protocol: Experiment B: Activity of Compounds (I) Against Crop Candidosis in Turkeys
# Turkeys of 14 days old were infected in the crop with 4.10^6 Candida albicans cells, grown on Sabouraud broth for 48 hours at 37° C. and diluted with saline. The volume of the inoculum was 1 ml. The drug under investigation were premixed in 500 mg of lacton and thereafter admixed in 1000 g of meal without any additives. The concentration of the drug under investigation in the meal was expressed in mg/kg.
# The animals were given the medicated feed for 13 consecutive days starting on the day of infection. At the end of the experiment all animals were sacrificed. At autopsy the crops were removed, emptied and grinded in an ultra-turrax mixer in 15 ml of sterile saline. Colony counting was done on Sabouraud agar and the results given in the Tables I, II and III represent the ED50, i.e., the dose of the drug whereby the crops of 50% of the animals were completely negative for Candida albicans.
# Candida albicans [2] = assay: Activity against vaginal candidosis in rats (lowest oral dose active at the 14th day after infection); type: in vivo, Female Wistar rats; design: lowest effective oral dose (vaginal candidosis in rats): unit not given here; conditions: oral once a day for two days, active at 14th day after infection; for lowest effective oral dose (vaginal candidosis in rats): Table I; for minimal effective dose: Candida albicans, 336 h, Table II
# Protocol: Experiment A: Activity of Compounds (I) Against Vaginal Candidosis in Rats
# Female Wistar rats of ±100 g body weight were used. They were ovariectomized and hysterectomized and after three weeks of recovery, 100 μg of oestradiol undecylate in sesame oil was given subcutaneously once a week for 3 consecutive weeks. The thus induced pseudooestrus was controlled by microscopic examination of vaginal smears. Food and water were left available ad libitum.
# The rats were infected intravaginally with 8.10^5 cells of Candida albicans, grown on Sabouraud broth for 48 hours at 37° C. and diluted with saline. The date of infection varied from day +25 to day +32 after surgical intervention, depending on the appearance of signs of induced pseudo-oestrus.
# The drugs under investigation were administered orally once a day for two days starting from the day of infection. For each experiment there were placebo treated controls. The results were assessed by taking vaginal smears with sterile swabs on several days after infection. The swabs were put into Sabouraud broth in petri-dishes and incubated for 48 hours a 37° C. If no growth of Candida albicans occured, i.e., when the animals were negative at the end of the experiment, this was due to drug administration because it never happened in placebo treated controls.
# The Tables I, II and III below give the lowest oral dose of the drug under investigation which was found active at the 14th day after infection.
structure (smiles),measurement,setting,value
"CN(C)c1ccc(OC[C@H]2CO[C@](Cn3ccnc3)(c3ccc(Cl)cc3Cl)O2)cc1 (relative stereo) [cis-4-[2-(2,4-dichlorophenyl)-2-(1H-imidazol-1-ylmethyl)-1,3-dioxolan-4-ylmethoxy]-N,N'-dimethylbenzenamine diethanedioate.hydrate]",ED50 (crop candidosis in turkeys),Candida albicans [1]; Table I,31 mg/kg of feed
same,lowest effective oral dose (vaginal candidosis in rats),Candida albicans [2],10
"O=C(Nc1ccc(OC[C@H]2CO[C@](Cn3ccnc3)(c3ccc(Cl)cc3Cl)O2)cc1)C(Cl)Cl (relative stereo) [NHCOCH(Cl)2, cis-2,2-dichloro-N-{4-[2-(2,4-dichlorophenyl)-2-(1H-imidazol-1-ylmethyl)-1,3-dioxolan-4-ylmethoxy]phenyl}acetamide]",ED50 (crop candidosis in turkeys),Candida albicans [1]; Table I,125 mg/kg of feed
same,lowest effective oral dose (vaginal candidosis in rats),Candida albicans [2],10
"CCNC(=O)Nc1ccc(OC[C@H]2CO[C@](Cn3ccnc3)(c3ccc(Cl)cc3Cl)O2)cc1 (relative stereo) [NHCONHC2 H5, cis-N-{4-[2-(2,4-dichlorophenyl)-2-(1H-imidazol-1-ylmethyl)-1,3-dioxolan-4-ylmethoxy]phenyl}-N'-ethylurea]",ED50 (crop candidosis in turkeys),Candida albicans [1]; Table I,125 mg/kg of feed
same,lowest effective oral dose (vaginal candidosis in rats),Candida albicans [2],10
CCN1CCN(c2ccc(OC[C@H]3CO[C@](Cn4ccnc4)(c4ccc(Cl)cc4Cl)O3)cc2)CC1 (relative stereo) [drawing 37],ED50 (crop candidosis in turkeys),Candida albicans [1]; Table I,31 mg/kg of feed
same,lowest effective oral dose (vaginal candidosis in rats),Candida albicans [2],1.25
CNC(=S)N1CCN(c2ccc(OC[C@H]3CO[C@](Cn4ccnc4)(c4ccc(Cl)cc4Cl)O3)cc2)CC1 (relative stereo),ED50 (crop candidosis in turkeys),Candida albicans [1]; Table I,125 mg/kg of feed
same,lowest effective oral dose (vaginal candidosis in rats),Candida albicans [2],2.5
CC(=O)N1CCN(c2ccc(OC[C@H]3CO[C@](Cn4ccnc4)(c4ccc(Cl)cc4Cl)O3)cc2)CC1 (relative stereo),ED50 (crop candidosis in turkeys),Candida albicans [1]; Table I,8 mg/kg of feed
same,lowest effective oral dose (vaginal candidosis in rats),Candida albicans [2],2.5
O=C(Nc1ccc(OC[C@H]2CO[C@](Cn3ccnc3)(c3ccc(Cl)cc3Cl)O2)cc1)c1ccccc1 (relative stereo),ED50 (crop candidosis in turkeys),Candida albicans [1]; Table I,63 mg/kg of feed
same,lowest effective oral dose (vaginal candidosis in rats),Candida albicans [2],5
O=C(Nc1ccc(OC[C@H]2CO[C@](Cn3ccnc3)(c3ccc(Cl)cc3Cl)O2)cc1)c1ccc(F)cc1 (relative stereo),ED50 (crop candidosis in turkeys),Candida albicans [1]; Table I,16 mg/kg of feed
same,lowest effective oral dose (vaginal candidosis in rats),Candida albicans [2],5
"S=C=Nc1ccc(OC[C@H]2CO[C@](Cn3ccnc3)(c3ccc(Cl)cc3Cl)O2)cc1 (relative stereo) [NCS, cis-1-[2-(2,4-dichlorophenyl)-4-(4-isothiocyanatophenoxymethyl)-1,3-dioxolan-2-ylmethyl]-1H-imidazole]",ED50 (crop candidosis in turkeys),Candida albicans [1]; Table I,125 mg/kg of feed
same,lowest effective oral dose (vaginal candidosis in rats),Candida albicans [2],5
Clc1ccc([C@@]2(Cn3ccnc3)OC[C@H](COc3ccc(N4CCNCC4)cc3)O2)c(Cl)c1 (relative stereo),ED50 (crop candidosis in turkeys),Candida albicans [1]; Table I,125 mg/kg of feed
same,lowest effective oral dose (vaginal candidosis in rats),Candida albicans [2],5
"O=CN1CCN(c2ccc(OC[C@H]3CO[C@](Cn4cncn4)(c4ccc(Cl)cc4Cl)O3)cc2)CC1 (relative stereo) [CHO, cis-4-{4-[2-(2,4-dichlorophenyl)-2-(1H-1,2,4-triazol-1-ylmethyl)-1,3-dioxolan-4-ylmethoxy]phenyl}-1-piperazinecarboxaldehyde]",ED50 (crop candidosis in turkeys),Candida albicans [1]; Table II,16 mg/kg of feed
same,minimal effective dose,Candida albicans [2],1.25 mg/kg
CCOC(=O)N1CCN(c2ccc(OC[C@H]3CO[C@](Cn4ccnc4)(c4ccc(Cl)cc4Cl)O3)cc2)CC1 (relative stereo) [drawing 31],ED50 (crop candidosis in turkeys),Candida albicans [1]; Table I,16 mg/kg of feed
same,lowest effective oral dose (vaginal candidosis in rats),Candida albicans [2],2.5
"Nc1ccc(OC[C@H]2CO[C@](Cn3ccnc3)(c3ccc(Cl)cc3Cl)O2)cc1 (relative stereo) [NH2, cis-4-[2-(2,4-dichlorophenyl)-2-(1H-imidazol-1-ylmethyl)-1,3-dioxolan-4-ylmethoxy]benzenamine]",ED50 (crop candidosis in turkeys),Candida albicans [1]; Table I,125 mg/kg of feed
same,lowest effective oral dose (vaginal candidosis in rats),Candida albicans [2],5
"CC(=O)N1CCN(c2ccc(OC[C@H]3CO[C@](Cn4cncn4)(c4ccc(Cl)cc4Cl)O3)cc2)CC1 (relative stereo) [COCH3, cis-1-acetyl-4-{4-[2-(2,4-dichlorophenyl)-2-(1H-1,2,4-triazol-1-ylmethyl)-1,3-dioxolan-4-yl-methoxy]phenyl}piperazine]",ED50 (crop candidosis in turkeys),Candida albicans [1]; Table II,8 mg/kg of feed
same,minimal effective dose,Candida albicans [2],1.25 mg/kg

# From patent US4223036A, “1-(1,3-Dioxolan-2-ylmethyl)-1H-1,2,4-triazoles” (Janssen Pharmaceutica N.V., priority 1979, dated 1980)
